Test system: mouse monoclonal antibodies (mAb) B8 against Btri
Test: ELISA: binding of anti-Btri mAb to Streptavidin-coated plates modified with biotinylated Btri glycoconjugates
Settings: for fluorescence intensity I (binding capacity / maximal activity): corrected fluorescence 355nm/460nm, at loading of maximal binding
Protocol: Biot1-PNPA was used to prepare a polyacrylamide conjugate with blood group trisaccharide B (Btri), Galα1-3(Fucα1-2)Gal-(FIG. 1b, Glyc=Btri). The obtained end-labeled glycopolymer; biott-PHEAA-(Btri)x (molar fraction of Btri is 20%), was tested on ability to bind monoclonal antibodies (mAbs) against Btri in ELISA. Its antibody binding activity was compared to that of other biotinylated derivatives of Btri, two monomeric glycosides with Btri-biot linkers of different length and a glycopolymer, PHEAA-(Btri)x-bioty. The latter was synthesized by the routine approach (see FIG. 1a) and contained biotin residues randomly pendant to the polymer backbone as side groups.
Dependence of signal in ELISA from loading of Streptaviditn-coated plates with biotynylated glycoconjugates is shown in FIG. 8. As shown, binding of antibodies with Streptavidin-coated plates modified with biotinilated glycoconjugates. The Streptavidin-coated plates were consequentially incubated with the glycoconjugates and mouse mAb; for development of the bound mAbs an anti-mouse alkaline phosphatase conjugate in combination with a fluorescent substrate were used. The detected fluorescence intensity is plotted against added per well amounts of a) Btri and b) biotin related to the quantity of Streptavidin in well. According the manufacturer 125 pmole Streptavidin is contained per well, the working well surface was calculated to be 9·10^15 Å^2. […] The antibody binding to surface modified with the biotinylated monovalent Btri-glycosides was noticeably lower then in the cases with the multivalent ligands. For the glycoside with a long linker, Btri-O(CH2)3NHCO(CH2)5NH-biot, assay signal was detected only when coating concentration of the glycoside exceeded 20 ng/well (0.18 mole biotin/mole Streptavidin, and 22 pmole of Btri/well).
All chemicals and solvents apart from those mentioned below were purchased from Merck (Germany) and Fluka (Switzerland). The solvents were dried and purified by conventional procedures. Galα1-3(Fucα1-2)Galβ-O(CH2)3NH2, 4-Nitrophenylacrylate, PNPA and PHEAA-(Btri)x-biotiny were synthesized as described elsewhere. Mouse monoclonal antibodies (mAb) B8 against Btri were obtained from All-Russian Hematology Research Center, Moscow. Anti-mouse IgG+IgM (H+L)-alkaline phosphatase conjugate (Ig-AP) was the product of AP Biotech (UK). The organocobalt complexes used in this work were protected from light; their solutions were concentrated under vacuum with bath temperature kept below 35° C.
Enzyme-Linked Immunosorbent Assay.
Before test plates “Reacti-Bind Streptavidin Coated High Binding Capacity Black 96-Well Plate” (Pierce) were rinsed twice with PBS. Then serial tenfold dilutions of the biotinylated glycoconjugates contained Btri in PBS (0.02-200 μg ml^−1, […] per well) were added onto the plates for 1 h at 37° C. Plates were washed with PBS containing 0.1% Tween-20 (washing buffer). The same way plates were washed between all the next steps. After washing the plates were blocked with 3-% BSA in PBS. B8 mAbs (1:100 in PBS containing 0.3% BSA) were added and plates were incubated for 1 h at 37° C. After that plates were washed and incubated with Ig-AP (1:5000 in PBS containing 0.3% BSA) for 1 h at 37° C. […] After 30-min incubation at room temperature fluorescence intensity (355nm/460nm) was measured by “Victor^2” multilabel counter (PerkinElmer). The collected data were expressed in fluorescence units. Each assay was done in duplicate, blank reaction was performed by omitting mAb. The blank reading was subtracted from the final fluorescence to provide the corrected fluorescence intensity values.

Row | Substance | coating concentration above which assay signal was detected (0.18 mole biotin/mole Streptavidin, 22 pmole of Btri/well) | loading at which maximal binding of mAb / maximal activity was achieved (Streptavidin-coated plate, 125 pmole Streptavidin per well, 200 ng/well = 186 pmol of Btri, 220 ng/well = 220 pmole of Btri/well) [ng/well] | fluorescence intensity I (binding capacity / maximal activity) | surface density of Btri at which binding with mAb reached maximal level (working well surface calculated to be 9·10^15 Å^2) | interaction with mAb (in words) (ELISA on Streptavidin-coated plates)
1 | Btri-O(CH2)3NHCO(CH2)5NH-biot | exceeded 20 ng/well | 220 | ~70×10^4 f.u. | about 15 residues/1000 Å^2 | –
2 | Btri-O(CH2)3NH-biot | – | – | ~5×10^4 f.u. | – | exceptionally weak
